Patent US7820655B2, “Ethanol or 1,2-ethanediol cyclohexyl antibiotic derivatives” (Actelion Pharmaceuticals Ltd., priority 2006, dated 2010)
Converted amounts (≈) assume the structure as drawn.

Experiments:
Format in all cases: cell-based
[1] = tested on: S. Pneumoniae 49619; test: MIC by broth microdilution (NCCLS), S. Pneumoniae 49619; conditions: Streptococcus pneumoniae, cation-adjusted Mueller-Hinton Broth, pH 7.2-7.3
Protocol: (§1) These assays have been performed following the description given in “Methods for dilution Antimicrobial Susceptibility Tests for Bacteria that Grow Aerobically, 4th ed.; Approved standard: NCCLS Document M7-A4; National Committee for Clinical Laboratory Standards Villanova, Pa., USA, 1997”. Minimal inhibitory concentrations (MICs; mg/l) were determined in cation-adjusted Mueller-Hinton Broth (BBL) by a microdilution method following NCCLS guidelines (National Committee for Clinical Laboratory Standards. Methods for Dilution Antimicrobial Susceptibility). The pH of the test medium was 7.2-7.3.

[2] = tested on: M. catarrhalis A894; test: MIC by broth microdilution (NCCLS), M. catarrhalis A894; conditions: Moraxella catarrhalis, cation-adjusted Mueller-Hinton Broth, pH 7.2-7.3
Protocol: as §1

[3] = tested on: S. aureus A798; test: MIC by broth microdilution (NCCLS), S. aureus A798; conditions: Staphylococcus aureus, cation-adjusted Mueller-Hinton Broth, pH 7.2-7.3
Protocol: as §1

SMILES	MIC [1]	MIC [2]	MIC [3]
COc1ccc2nccc([C@@H](O)[C@H](O)[C@H]3CC[C@H](NCc4ccc5c(n4)NC(=O)CS5)CC3)c2n1 [Example 3, 6-(trans-{4-[(1R,2R)-1,2-dihydroxy-2-(6-methoxy-[1,5]naphthyridin-4-yl)-ethyl]-cyclohexylamino}-methyl)-4H-pyrido[3,2-b][1,4]thiazin-3-one]	0.063 µg/mL (≈ 0.127 µM)	≤ 0.031 µg/mL	≤ 0.031 µg/mL
COc1cnc2cccc([C@@H](O)[C@H](O)[C@H]3CC[C@H](NC/C=C/c4cc(F)ccc4F)CC3)c2n1 [Example 10, (1R,2R)-1-{trans-4-[(E)-3-(2,5-difluoro-phenyl)-allylamino]-cyclohexyl}-2-(3-methoxy-quinoxalin-5-yl)-ethane-1,2-diol]	0.063 µg/mL (≈ 0.134 µM)	≤ 0.031 µg/mL	≤ 0.031 µg/mL
COc1ccc2nccc(C[C@@H](O)[C@H]3CC[C@H](NCc4ccc5c(n4)NC(=O)CO5)CC3)c2n1 [Example 12, 6-(trans{4-[1-(1R)-hydroxy-2-(6-methoxy-[1,5]naphthyridin-4-yl)-ethyl]-cyclohexylamino}-methyl)-4H-pyrido[3,2-b][1,4]oxazin-3-one]	0.125 µg/mL (≈ 0.27 µM)	0.031 µg/mL (≈ 0.0669 µM)	0.063 µg/mL (≈ 0.136 µM)
